Results on one compound are retold here after EPA's ToxValDB 9.5 (doi:10.2903/j.efsa.2010.1822).

The test system of one series is Aphidius rhopalosiphi. The series is described as follows: LR50; higher = less toxic. The settings on record: not reported; mortality.
The test system of a further series is Oncorhynchus mykiss. The settings on record: chronic/long-term; duration: 28 days; other.
A further series deals with Coturnix japonica. The settings on record: reproduction developmental.
The next series relates to Bibionidae. The settings on record: chronic/long-term; duration: 28 days.
Another series deals with Hypoaspis aculeifer. The settings on record: chronic/long-term.
In another series the test system is Daphnia magna. The settings on record: chronic/long-term; duration: 21 days; reproduction.
Another series deals with Canidae. The settings on record: chronic; duration: 52 weeks; oral; Dog Other; histopathology: nonneoplastic.
The next series concerns Apis mellifera. The settings on record: acute; duration: 48 hours; dermal; mortality.
Another series deals with Lepomis macrochirus. The settings on record: acute; duration: 96 hours; mortality.
A further series relates to Anas platyrhynchos. The settings on record: short-term; oral; feed; mortality.
For the next series, the system named is Colinus virginianus. The settings on record: acute; oral; mortality.

The term NOAEL denotes the highest tested level that showed no adverse finding.

Molecules are shown by their SMILES.

In the series on Aphidius rhopalosiphi, `COC(=O)[N-]S(=O)(=O)c1ccc(N)cc1.[Na+]` [Asulam-sodium] yielded an LR50 of 3090 mL/ha. Moreover, the NOEC was determined as 119 mg/L in the series with Oncorhynchus mykiss; 91.3 mg/L with Bibionidae; 4370 mg/kg in the series with Hypoaspis aculeifer; 6.4 mg/L with Daphnia magna; 181 mg/kg in the series with Tagia sp. (chronic/long-term, duration: 56 days). In the series on Coturnix japonica, this compound came in with an NOAEC of 65 mg/kg-day. Further, the NOEL with Coturnix japonica stood at 19 mg/kg-day; with Rattus norvegicus (reproduction developmental, reproduction), 46 mg/kg-day. Also, the NOAEL in the series on Canidae was found to be 100 mg/kg-day; in the series with Rattus norvegicus (chronic, duration: 2 years, hematological), 36 mg/kg-day. The LD50 with Apis mellifera was > 100 µg/piece; in the series on Anas platyrhynchos, > 22700 mg/kg-day; in the series with Colinus virginianus, > 1830 mg/kg; in the series on Rattus norvegicus (acute, oral, mortality), > 4560 mg/kg. Moreover, the LC50 is > 91.3 µg/mL in the series with Lepomis macrochirus and 1000 mg/kg with Tagia sp. (acute, duration: 14 days, mortality).
